Assay results published in paper PMC5451161 (Tetrahedron, asymmetry, 2016).

Target: NDM-1 (New Delhi metallo-β-Lactamase) (Klebsiella pneumoniae, UniProt C7C422)
Type: biochemical

Chain of NDM-1 (New Delhi metallo-β-Lactamase) (C7C422 29-270 limits assumed): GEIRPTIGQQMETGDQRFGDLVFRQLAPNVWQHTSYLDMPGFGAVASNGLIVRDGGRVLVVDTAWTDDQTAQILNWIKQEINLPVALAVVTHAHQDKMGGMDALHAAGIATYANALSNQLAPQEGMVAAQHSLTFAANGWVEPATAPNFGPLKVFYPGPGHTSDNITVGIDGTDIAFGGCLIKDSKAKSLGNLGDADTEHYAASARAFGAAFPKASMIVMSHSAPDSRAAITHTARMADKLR

**Q.** For COC(=O)[C@@H]1COC2CSC(CS)N21 (stereo partly shown) [4f], which Ki is on record?
**A.** 1.6 ± 0.6 µM
